By IC50 is commonly meant the concentration that inhibits the measured activity by half.

This experiment has as its system MM.1S cells. Briefly: Effect of the compound on the proliferation of MM.1S cells (MTS). In kind it is cell-based. As to conditions: Homo sapiens, MM1.S, 168 h, 7 days, read-out: Cell inhibitory activity (IC50). As to the method:
MM.1S cells were cultured with 1640 plus 10% fetal bovine serum and collected. The cell concentration was diluted according to the action time of 7 days, and 180 ul cell suspension was added to each well of the 96-well cell plate to make the cell count to be 20,000. 20 ul of DMSO with a final concentration of 0.2% was added to the control cell wells. The compound was diluted 5-fold with the 10 mM stock solution, and 20 ul was also added to the compound cell wells (the final concentration of DMSO is 0.2%). The cells were placed in a 37° C., 5% CO2 incubator and incubated for 7 days. After preparing the reaction solution according to the MTS kit (Promega, G5430), 20 μL was added to each well, incubated in a 37° C., 5% CO2 incubator for 3-4 h. Read the 490 nm absorbance value with a microtiter plate, and used the 690 nm absorbance value as the background value and OD490-OD690 as the final initial data. The formula for calculating the inhibition rate of the compound is: inhibition rate=(OD DMSO-ODcompound)/(ODDMSO-Oblank)×100%. The compound's proliferation inhibition IC50 was fitted by Graph Pad Prism 5.0. The experiment was repeated three times, and three parallel experiments were used to calculate the average and standard deviation each time.

With `O=C1CCC(N2Cc3c(OCc4cn(Cc5ccccc5)nn4)cccc3C2=O)C(=O)N1` (centres unmarked) [Compound 1], the IC50 is less than 150 nM.

Turning to `O=C1CCC(N2Cc3c(OCc4cn(Cc5ccncc5)nn4)cccc3C2=O)C(=O)N1` (centres unmarked) [Compound 2], the IC50 was in the range of 150 to 20000 nM.

In the case of `O=C1CCC(N2Cc3c(OCc4cn(Cc5cccnc5)nn4)cccc3C2=O)C(=O)N1` (centres unmarked) [Compound 3], the IC50 fell in the range of 150 to 20000 nM.

As for `O=C1CCC(N2Cc3c(OCc4cn(Cc5ccnc6ccccc56)nn4)cccc3C2=O)C(=O)N1` (centres unmarked) [Compound 4], the IC50 was less than 150 nM.

Take `COc1cccc(Cn2cc(COc3cccc4c3CN(C3CCC(=O)NC3=O)C4=O)nn2)c1` (centres unmarked) [Compound 5]: the IC50 was less than 150 nM.

Consider `O=C1CCC(N2Cc3c(OCc4cn(Cc5cccc(C(F)(F)F)c5)nn4)cccc3C2=O)C(=O)N1` (centres unmarked) [Compound 6, 3-(1-oxo-4-((1-(3-(trifluoromethyl)benzyl)-1H-1,2,3-triazol-4-)methoxy)isoindolin-2-) piperidine-2,6-dione], for which the IC50 was less than 150 nM.

As for `O=C1CCC(N2Cc3c(OCc4cn(Cc5cccc(N6CCOCC6)c5)nn4)cccc3C2=O)C(=O)N1` (centres unmarked) [Compound 7, 3-(4-((1-(3-morpholinbenzyl)-1H-1,2,3-triazol-4-)methoxy)-1-oxoisoindolin-2-) piperidine-2,6-dione], the IC50 was less than 150 nM.

Turning to `O=C1CCC(N2Cc3c(OCc4cn(Cc5ccc(N6CCOCC6)cc5)nn4)cccc3C2=O)C(=O)N1` (centres unmarked) [Compound 8, 3-(4-((1-(4-morpholinbenzyl)-1H-1,2,3-triazol-4-)methoxy)-1-oxoisoindolin-2-) piperidine-2,6-dione], the IC50 is less than 150 nM.

In the case of `CN(C)c1cccc(Cn2cc(COc3cccc4c3CN(C3CCC(=O)NC3=O)C4=O)nn2)c1` (centres unmarked) [Compound 9], the IC50 was less than 150 nM.

Turning to `COC(=O)c1cccc(Cn2cc(COc3cccc4c3CN(C3CCC(=O)NC3=O)C4=O)nn2)c1` (centres unmarked) [Compound 10, Methyl 3-((4-(((2-(2,6-dioxopiperidin-3-)-1-oxoisoindolin-4-)oxo)methyl)-1H-1,2,3-triazol-1-)methyl) benzoate], the IC50 was less than 150 nM.

For the compound `O=C1CCC(N2Cc3c(OCc4cn(Cc5cccc(OC(F)(F)F)c5)nn4)cccc3C2=O)C(=O)N1` (centres unmarked) [Compound 11], the IC50 was less than 150 nM.

Turning to `O=C1CCC(N2Cc3c(OCc4cn(Cc5ccc(CN6CCOCC6)cc5)nn4)cccc3C2=O)C(=O)N1` (centres unmarked) [Compound 12, 3-(4-((1-(4-(morpholinomethyl)benzyl)-1H-1,2,3-triazol-4-)methoxy)-1-oxoisoindolin-2-) piperidine-2,6-dione], the IC50 is less than 150 nM.

`O=C1CCC(N2Cc3c(OCc4cn(Cc5ccc6[nH]cnc6c5)nn4)cccc3C2=O)C(=O)N1` (centres unmarked) [Compound 13]: the IC50 fell in the range of 150 to 20000 nM.

Regarding `O=C1CCC(N2Cc3c(OCc4cn(Cc5cccc(-n6ccnc6)c5)nn4)cccc3C2=O)C(=O)N1` (centres unmarked) [Compound 14, 3-(4-((1-(3-(1H-imidazol-1-)benzyl)-1H-1,2,3-triazol-4-)methoxy)-1-oxoisoindolin-2-) piperidine-2,6-dione], the IC50 was less than 150 nM.

As to `O=C1CCC(N2Cc3c(OCc4cn(-c5ccccc5)nn4)cccc3C2=O)C(=O)N1` (centres unmarked) [Compound 15, 3-(1-oxo-4-((1-phenyl-1H-1,2,3-triazol-4-)methoxy)isoindolin-2-) piperidine-2,6-dione], the IC50 is less than 150 nM.

In the case of `O=C1CCC(N2Cc3c(OCc4cn(-c5cccc(O)c5)nn4)cccc3C2=O)C(=O)N1` (centres unmarked) [Compound 16, 3-(4-((1-(3-hydroxyphenyl)-1H-1,2,3-triazol-4-)methoxy)-1-oxoisoindolin-2-) piperidine-2,6-dione], the IC50 was less than 150 nM.

As for `O=C1CCC(N2Cc3c(OCc4cn(-c5ccc(O)cc5)nn4)cccc3C2=O)C(=O)N1` (centres unmarked) [Compound 21, 3-(4-((1-(4-hydroxyphenyl)-1H-1,2,3-triazol-4-)methoxy)-1-oxoisoindolin-2-) piperidine-2,6-dione], the IC50 is less than 150 nM.

Consider `O=C1CCC(N2Cc3c(OCc4cn(-c5cccc(N6CCOCC6)c5)nn4)cccc3C2=O)C(=O)N1` (centres unmarked) [Compound 22, 3-(4-((1-(3-morpholinophenyl)-1H-1,2,3-triazol-4-)methoxy)-1-oxoisoindolin-2-) piperidine-2,6-dione], for which the IC50 was less than 150 nM.

`CN(C)CCn1ccc2cc(-n3cc(COc4cccc5c4CN(C4CCC(=O)NC4=O)C5=O)nn3)ccc21` (centres unmarked) [Compound 27, 3-(4-((1-(1-(2-(dimethylamino)ethyl)-1H-indol-5-)-1H-1,2,3-triazol-4-)methoxy)-1-oxoisoindolin-2-)piperidine-2,6-dione]: the IC50 was less than 150 nM.

`O=C1CCC(N2Cc3c(OCc4cn(-c5ccc(OC6COC6)cc5)nn4)cccc3C2=O)C(=O)N1` (centres unmarked) [Compound 31, 3-(4-((1-(4-(epoxypropanoxy-3-oxy)phenyl)-1H-1,2,3-triazol-4-)methoxy)-1-oxoisoindolin-2-)piperidine-2,6-dione]: the IC50 was less than 150 nM.

Regarding `O=C1CCC(N2Cc3c(OCc4cn(-c5ccc(OC6CC6)cc5)nn4)cccc3C2=O)C(=O)N1` (centres unmarked) [Compound 32], the IC50 is less than 150 nM.

In the case of `O=C1CCC(N2Cc3c(OCc4cn(-c5ccc(CCO)cc5)nn4)cccc3C2=O)C(=O)N1` (centres unmarked) [Compound 33], the IC50 is less than 150 nM.

As for `C[C@]1(N2Cc3c(OCc4cn(-c5ccc(OC(F)(F)F)cc5)nn4)cccc3C2=O)CCC(=O)NC1=O` [Compound 34], the IC50 lay in the range of 150 to 20000 nM.

Consider `C[C@]1(N2C(=O)c3cccc(OCc4cn(-c5ccc(OC(F)(F)F)cc5)nn4)c3C2=O)CCC(=O)NC1=O` [Compound 35], for which the IC50 was in the range of 150 to 20000 nM.

As to `COCCn1ccc2cc(-n3cc(COc4cccc5c4CN([C@@]4(C)CCC(=O)NC4=O)C5=O)nn3)ccc21` [Compound 36, (S)-3-(4-((1-(1-(2-methoxyethyl)-1H-indol-5-)-1H-1,2,3-triazol-4-)methoxy)-1-oxoisoindolin-2-)-3-methylpiperidine-2,6-dione], the half-maximal inhibitory concentration (IC50) fell in the range of 150 to 20000 nM.

As to `COCCn1ccc2cc(-n3cc(COc4cccc5c4C(=O)N([C@@]4(C)CCC(=O)NC4=O)C5=O)nn3)ccc21` [Compound 37, (S)-4-((1-(1-(2-methoxyethyl)-1H-indole-5-)-1H-1,2,3-triazol-4-)methoxy)-2-(3-methyl-2,6-dioxopiperidine-3-) isoindolin-1,3-dione], the IC50 was in the range of 150 to 20000 nM.

For `O=C1CCC(N2C(=O)c3cccc(OCc4cn(-c5ccc(OC(F)(F)F)cc5)nn4)c3C2=O)C(=O)N1` (centres unmarked) [Compound 38, 2-(2,6-dioxopiperidine-3-)-4-((1-(4-trifluoromethoxyphenyl)-1H-1,2,3-triazol-4-)methoxy) isoindolin-1,3-dione], the IC50 is 150 to 20000 nM.

`O=C1CCC(N2Cc3c(OCc4cnc(-c5nc6ccccc6s5)s4)cccc3C2=O)C(=O)N1` (centres unmarked) [Compound 46, 3-(4-(2-(benzo[d]thiazol-2-)thiazol-5-)methoxy)-1-oxoisoindolin-2-) piperidine-2,6-dione]: the IC50 is less than 150 nM.

As to `O=C1CCC(N2Cc3c(OCc4cnc(-c5ncc(C(F)(F)F)s5)s4)cccc3C2=O)C(=O)N1` (centres unmarked) [Compound 47], the IC50 was less than 150 nM.

For the compound `O=C1CCC(N2Cc3c(OCc4cn(CC5CCOCC5)nn4)cccc3C2=O)C(=O)N1` (centres unmarked) [Compound 48, 3-(1-oxo-4-((1-((tetrahydro-2H-pyran-4-)methyl)-1H-1,2,3-triazol-4-)methoxy)isoindolin-2-) piperidine-2,6-dione], the IC50 is 150 to 20000 nM.

Regarding `O=C1CCC(N2Cc3c(OCc4cn(CCc5ccccc5)nn4)cccc3C2=O)C(=O)N1` (centres unmarked) [Compound 49], the IC50 is less than 150 nM.

As to `C[C@H](c1ccccc1)n1cc(COc2cccc3c2CN(C2CCC(=O)NC2=O)C3=O)nn1` (some centres unmarked) [Compound 50], the IC50 was less than 150 nM.

For the compound `C[C@@H](c1ccccc1)n1cc(COc2cccc3c2CN(C2CCC(=O)NC2=O)C3=O)nn1` (some centres unmarked) [Compound 51], the IC50 was less than 150 nM.

Turning to `COC[C@@H](Cc1ccccc1)n1cc(COc2cccc3c2CN(C2CCC(=O)NC2=O)C3=O)nn1` (some centres unmarked) [Compound 52], the IC50 is less than 150 nM.

With `O=C1CCC(N2Cc3c(OCc4cn([C@@H](CO)Cc5ccccc5)nn4)cccc3C2=O)C(=O)N1` (some centres unmarked) [Compound 53], the IC50 was less than 150 nM.

`O=C1CCC(N2Cc3c(OCc4cn([C@H](CO)Cc5ccccc5)nn4)cccc3C2=O)C(=O)N1` (some centres unmarked) [Compound 54]: the IC50 lay within 150 to 20000 nM.

Turning to `CN(C)C[C@H](Cc1ccccc1)n1cc(COc2cccc3c2CN(C2CCC(=O)NC2=O)C3=O)nn1` (some centres unmarked) [Compound 56], the IC50 is less than 150 nM.

Consider `CN(C)C[C@@H](Cc1ccccc1)n1cc(COc2cccc3c2CN(C2CCC(=O)NC2=O)C3=O)nn1` (some centres unmarked) [Compound 57], for which the IC50 is less than 150 nM.

In the case of `C[C@H](Cc1ccccc1)n1cc(COc2cccc3c2CN(C2CCC(=O)NC2=O)C3=O)nn1` (stereo partly drawn) [Compound 58, 3-(1-oxo-4-((1-((R)-1-phenylpropyl-2-)-1H-1,2,3-triazol-4-)methoxy)isoindolin-2-) piperidine-2,6-dione], the IC50 was less than 150 nM.

As for `C[C@@H](Cc1ccccc1)n1cc(COc2cccc3c2CN(C2CCC(=O)NC2=O)C3=O)nn1` (stereo partly drawn) [Compound 59, 3-(1-oxo-4-((1-((S)-1-phenylpropyl-2-)-1H-1,2,3-triazol-4-)methoxy)isoindolin-2-) piperidine-2,6-dione], the IC50 was less than 150 nM.

Turning to `O=C1CCC(N2Cc3c(OCCc4cn(-c5ccccc5)nn4)cccc3C2=O)C(=O)N1` (centres unmarked) [Compound 60, 3-(1-oxo-4-(2-(1-phenyl-1H-1,2,3-triazol-4-)ethoxy)isoindolin-2-) piperidine-2,6-dione], the IC50 was greater than 20000 nM.

For the origin of these results see patent publication US20220041578A1, “ISOINDOLINE COMPOUND, AND PREPARATION METHOD, PHARMACEUTICAL COMPOSITION, AND APPLICATION OF ISOINDOLINE COMPOUND” (Shanghai Institute of Meteria Medica, Chinese Academy of …, priority 2018, published 2022).
